Patent US10800792B2, “Inhibitors of Bruton's tyrosine kinase and method of their use” (JANSSEN PHARMACEUTICA NV, priority 2015, dated 2020)

What follows are molecules tested against unphosphorylated-BTK kinase domain (UP-BTK), GST-tagged human BTK (389-659aa) (Homo sapiens (Human), UniProt Q06187) (assay: BTK kinase Lanthascreen binding assay). Conditions: Lanthascreen tracer competition, 60 minutes incubation; pIC50 = negative log of the IC50 in molar.
Method in brief: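 A fluorescent tracer is bound to unphosphorylated BTK; test compound is added to compete it off; the Lanthascreen signal is read and IC50 is fitted, then reported as its negative log in molar.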

unphosphorylated-BTK kinase domain (UP-BTK), GST-tagged human BTK (389-659aa), sequence (Q06187 389-659): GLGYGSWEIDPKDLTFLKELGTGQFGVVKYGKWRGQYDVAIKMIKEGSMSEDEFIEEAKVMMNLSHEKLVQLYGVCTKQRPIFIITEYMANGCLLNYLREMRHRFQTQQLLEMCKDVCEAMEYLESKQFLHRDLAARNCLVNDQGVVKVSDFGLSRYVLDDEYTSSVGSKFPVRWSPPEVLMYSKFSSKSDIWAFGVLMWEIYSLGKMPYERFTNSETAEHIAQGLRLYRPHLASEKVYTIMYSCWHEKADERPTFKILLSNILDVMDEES

| Structure (SMILES) | BTK_I_binding pIC50 |
| --- | --- |
| C=CC(=O)N1CCC[C@@H](NC(=O)c2sc3nccc4c3c2NC(=O)N4c2ccc(Oc3ccc(C)cn3)cc2)C1 [Example 786, (R)—N-(1-Acryloylpiperidin-3-yl)-5-(4-((5-methylpyridin-2-yl)oxy)phenyl)-4-oxo-4,5-dihydro-3H-1-thia-3,5,8-triazaacenaphthylene-2-carboxamide] | 6.9 |
| C=CC(=O)N1CCC[C@@H](NC(=O)c2sc3nccc4c3c2NC(=O)N4c2ccc(O[C@@H]3CCOC3)cc2C)C1 [Example 787, N—((R)-1-Acryloylpiperidin-3-yl)-5-(2-methyl-4-(((R)-tetrahydrofuran-3-yl)oxy)phenyl)-4-oxo-4,5-dihydro-3H-1-thia-3,5,8-triazaacenaphthylene-2-carboxamide] | 6.6 |
| C=CC(=O)N1CC[C@@H](NC(=O)c2sc3nccc4c3c2NC(=O)N4c2ccc(Oc3cccnn3)cc2C)C1 [Example 790, (R)—N-(1-Acryloylpyrrolidin-3-yl)-5-(2-methyl-4-(pyridazin-3-yloxy)phenyl)-4-oxo-4,5-dihydro-3H-1-thia-3,5,8-triazaacenaphthylene-2-carboxamide] | 6.7 |
| C=CC(=O)N1CCC[C@@H](NC(=O)c2sc3nccc4c3c2NC(=O)N4c2ccc(Oc3cccnn3)cc2)C1 [Example 791, (R)—N-(1-Acryloylpiperidin-3-yl)-4-oxo-5-(4-(pyridazin-3-yloxy)phenyl)-4,5-dihydro-3H-1-thia-3,5,8-triazaacenaphthylene-2-carboxamide] | 6.6 |
| C=CC(=O)N1CCC[C@H](NC(=O)c2sc3nccc4c3c2NC(=O)N4c2ccc(Oc3ccccc3)cn2)C1 [Example 795, (S)—N-(1-Acryloylpiperidin-3-yl)-4-oxo-5-(5-phenoxypyridin-2-yl)-4,5-dihydro-3H-1-thia-3,5,8-triazaacenaphthylene-2-carboxamide] | 6.4 |
| C=CC(=O)N1CCN(c2sc3nccc4c3c2NC(=O)N4c2ccc(Oc3ccccc3)cc2C)CC1 [Example 796, 2-(4-Acryloylpiperazin-1-yl)-5-(2-methyl-4-phenoxyphenyl)-3H-1-thia-3,5,8-triazaacenaphthylen-4(5H)-one] | 6.3 |
| CCC(=O)N1CCC[C@@H](NC(=O)c2sc3nccc4c3c2NC(=O)N4c2ccc(Oc3ccccn3)cc2C)C1 [Example 799, (R)-5-(2-Methyl-4-(pyridin-2-yloxy)phenyl)-4-oxo-N-(1-propionylpiperidin-3-yl)-4,5-dihydro-3H-1-thia-3,5,8-triazaacenaphthylene-2-carboxamide] | 6.2 |
| CC(=O)N1CCC[C@@H](NC(=O)c2sc3nccc4c3c2NC(=O)N4c2ccc(Oc3ccccn3)cc2C)C1 [Example 800, (R)—N-(1-Acetylpiperidin-3-yl)-5-(2-methyl-4-(pyridin-2-yloxy)phenyl)-4-oxo-4,5-dihydro-3H-1-thia-3,5,8-triazaacenaphthylene-2-carboxamide] | 6.2 |
| C=CC(=O)N1CC[C@@H](NC(=O)c2sc3nccc4c3c2NC(=O)N4c2ccc(Oc3cccnn3)cc2)C1 [Example 803, (R)—N-(1-Acryloylpyrrolidin-3-yl)-4-oxo-5-(4-(pyridazin-3-yloxy)phenyl)-4,5-dihydro-3H-1-thia-3,5,8-triazaacenaphthylene-2-carboxamide] | 6.1 |
| CCC(=O)N1CCC[C@@H](NC(=O)c2sc3nccc4c3c2NC(=O)N4c2ccc(Oc3ccccn3)cc2)C1 [Example 807, (R)-4-Oxo-N-(1-propionylpiperidin-3-yl)-5-(4-(pyridin-2-yloxy)phenyl)-4,5-dihydro-3H-1-thia-3,5,8-triazaacenaphthylene-2-carboxamide] | <6 |
| CC(=O)N1CCC[C@@H](NC(=O)c2sc3nccc4c3c2NC(=O)N4c2ccc(Oc3ccccn3)cc2)C1 [Example 808, (R)—N-(1-Acetylpiperidin-3-yl)-4-oxo-5-(4-(pyridin-2-yloxy)phenyl)-4,5-dihydro-3H-1-thia-3,5,8-triazaacenaphthylene-2-carboxamide] | <6 |
| CCC(=O)N1CCC[C@@H](NC(=O)c2sc3nccc4c3c2NC(=O)N4c2ccc(Oc3cccnn3)cc2C)C1 [Example 809, (R)-5-(2-Methyl-4-(pyridazin-3-yloxy)phenyl)-4-oxo-N-(1-propionylpiperidin-3-yl)-4,5-dihydro-3H-1-thia-3,5,8-triazaacenaphthylene-2-carboxamide] | <6 |
| CC(=O)N1CCC[C@@H](NC(=O)c2sc3nccc4c3c2NC(=O)N4c2ccc(Oc3cccnn3)cc2C)C1 [Example 810, (R)—N-(1-Acetylpiperidin-3-yl)-5-(2-methyl-4-(pyridazin-3-yloxy)phenyl)-4-oxo-4,5-dihydro-3H-1-thia-3,5,8-triazaacenaphthylene-2-carboxamide] | <6 |
| CC(=O)N1CCC[C@@H](NC(=O)c2sc3nccc4c3c2NC(=O)N4c2ccc(Oc3cccnn3)cc2)C1 [Example 812, (R)—N-(1-Acetylpiperidin-3-yl)-4-oxo-5-(4-(pyridazin-3-yloxy)phenyl)-4,5-dihydro-3H-1-thia-3,5,8-triazaacenaphthylene-2-carboxamide] | <6 |
| C=CC(=O)N1CCC(C(=O)Nc2sc3nccc4c3c2NC(=O)N4c2ccc(Oc3ccccc3)cc2C)CC1 [Example 820, 1-Acryloyl-N-(5-(2-methyl-4-phenoxyphenyl)-4-oxo-4,5-dihydro-3H-1-thia-3,5,8-triazaacenaphthylen-2-yl)piperidine-4-carboxamide] | 5.9 |
| Cc1cc(Oc2ccccc2)ccc1N1C(=O)Nc2c(NC(=O)C3CCN(C#N)CC3)sc3nccc1c23 [Example 822, 1-Cyano-N-(5-(2-methyl-4-phenoxyphenyl)-4-oxo-4,5-dihydro-3H-1-thia-3,5,8-triazaacenaphthylen-2-yl)piperidine-4-carboxamide] | 5.8 |

The remaining lines, values ahead:

| BTK_I_binding pIC50 | Structure (SMILES) |
| --- | --- |
| 6.2 | Cc1cc(Oc2ccccc2)ccc1N1C(=O)Nc2c(NC(=O)C3CCCN(C(=O)/C(C#N)=C/C4CC4)C3)sc3nccc1c23 (centres unmarked) [Example 801, (E)-1-(2-Cyano-3-cyclopropylacryloyl)-N-(5-(2-methyl-4-phenoxyphenyl)-4-oxo-4,5-dihydro-3H-1-thia-3,5,8-triazaacenaphthylen-2-yl)piperidine-3-carboxamide] |
| 6.1 | Cc1cc(Oc2ccccc2)ccc1N1C(=O)Nc2c(NC(=O)C3CCCN(C#N)C3)sc3nccc1c23 (centres unmarked) [Example 802, 1-Cyano-N-(5-(2-methyl-4-phenoxyphenyl)-4-oxo-4,5-dihydro-3H-1-thia-3,5,8-triazaacenaphthylen-2-yl)piperidine-3-carboxamide] |
| 6.0 | CCC(=O)N1CCC(C(=O)Nc2sc3nccc4c3c2NC(=O)N4c2ccc(Oc3ccccc3)cc2C)CC1 [Example 805, N-(5-(2-Methyl-4-phenoxyphenyl)-4-oxo-4,5-dihydro-3H-1-thia-3,5,8-triazaacenaphthylen-2-yl)-1-propionylpiperidine-4-carboxamide] |
| 6.0 | Cc1cc(Oc2ccccc2)ccc1N1C(=O)Nc2c(NC(=O)C3CCCN(C(=O)CC#N)C3)sc3nccc1c23 (centres unmarked) [Example 817, 1-(2-Cyanoacetyl)-N-(5-(2-methyl-4-phenoxyphenyl)-4-oxo-4,5-dihydro-3H-1-thia-3,5,8-triazaacenaphthylen-2-yl)piperidine-3-carboxamide] |
| 5.9 | CCC(=O)N1CCCC(C(=O)Nc2sc3nccc4c3c2NC(=O)N4c2ccc(Oc3ccccc3)cc2C)C1 (centres unmarked) [Example 818, N-(5-(2-Methyl-4-phenoxyphenyl)-4-oxo-4,5-dihydro-3H-1-thia-3,5,8-triazaacenaphthylen-2-yl)-1-propionylpiperidine-3-carboxamide] |
| 5.9 | Cc1cc(Oc2ccccc2)ccc1N1C(=O)Nc2c(NC(=O)C3CCN(C(=O)CC#N)CC3)sc3nccc1c23 [Example 819, 1-(2-Cyanoacetyl)-N-(5-(2-methyl-4-phenoxyphenyl)-4-oxo-4,5-dihydro-3H-1-thia-3,5,8-triazaacenaphthylen-2-yl)piperidine-4-carboxamide] |
| 5.8 | CCN1CCCC(C(=O)Nc2sc3nccc4c3c2NC(=O)N4c2ccc(Oc3ccccc3)cc2C)C1 (centres unmarked) [Example 821, 1-Ethyl-N-(5-(2-methyl-4-phenoxyphenyl)-4-oxo-4,5-dihydro-3H-1-thia-3,5,8-triazaacenaphthylen-2-yl)piperidine-3-carboxamide] |

Same assay, conditions: Lanthascreen tracer competition, 60 minutes incubation; pIC50 = negative log of the IC50 in molar; read-out: BTK_I_binding pIC50 (converted)

| Structure (SMILES) | IC50 [nM] |
| --- | --- |
| C=CC(=O)N1CCCC(C(=O)Nc2sc3nccc4c3c2NC(=O)N4c2ccc(Oc3ccccc3)cc2C)C1 (centres unmarked) [Example 788, 1-Acryloyl-N-(5-(2-methyl-4-phenoxyphenyl)-4-oxo-4,5-dihydro-3H-1-thia-3,5,8-triazaacenaphthylen-2-yl)piperidine-3-carboxamide] | 200 |
| Cc1cc(Oc2ccccc2)ccc1N1C(=O)Nc2c(NC(=O)C3CCCN(C(=O)/C(C#N)=C/C(C)(C)C)C3)sc3nccc1c23 (centres unmarked) [Example 816, (E)-1-(2-Cyano-4,4-dimethylpent-2-enoyl)-N-(5-(2-methyl-4-phenoxyphenyl)-4-oxo-4,5-dihydro-3H-1-thia-3,5,8-triazaacenaphthylen-2-yl)piperidine-3-carboxamide] | 1000 |
| Cc1cc(Oc2ccccc2)ccc1N1C(=O)Nc2c(NC(=O)C3CCCN(C)C3)sc3nccc1c23 (centres unmarked) [Example 823, 1-Methyl-N-(5-(2-methyl-4-phenoxyphenyl)-4-oxo-4,5-dihydro-3H-1-thia-3,5,8-triazaacenaphthylen-2-yl)piperidine-3-carboxamide] | 3160 |
